PubChem BioAssay AID977613 (Broad Institute, 2014)
Active and inactive are the calls of the source. How the calls were made is not given here.

Tested on: Broad 7084-01 inhibitor HTS, set 2
Test: inhibitors in Broad screen 7084-01, set 2 (AID 977613);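 further: host cells are infected with parasite promastigotes that become internalized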

Row | Compound | active concentration
1 | O=C(C[C@@H]1CC[C@H]2[C@@H](COC[C@@H](O)CN2S(=O)(=O)c2ccc(F)cc2)O1)NCC1CC1 | > 10 µM (inactive)
2 | O=C(C[C@@H]1CC[C@H]2[C@@H](COC[C@@H](O)CN2Cc2cc(F)ccc2F)O1)NCc1ccc(F)cc1 | > 10 µM (inactive)
3 | O=C(CC(F)(F)F)N1C[C@@H]2[C@H](c3ccccc31)[C@H](CO)N2C(=O)C1CC1 | > 10 µM (inactive)
4 | O=C(NCC(F)(F)F)[C@H]1[C@H](CO)[C@H]2Cn3c(cccc3=O)[C@H]2N1Cc1cccc(F)c1 | > 10 µM (inactive)
5 | C/C=C/c1ccccc1[C@@H]1[C@H](C#N)N(C(C)=O)[C@H]1CO | > 10 µM (inactive)
6 | COCC(=O)N1[C@H](CO)[C@@H](c2ccccc2-c2ccccc2F)[C@@H]1C#N | < 10 µM
7 | OC[C@@H]1[C@@H]2c3ccccc3NC[C@@H]2N1Cc1cccnc1 | > 10 µM (inactive)
8 | OC[C@@H]1[C@@H]2c3ccccc3NC[C@@H]2N1Cc1ccccc1Cl | > 10 µM (inactive)
9 | O=S(=O)(c1ccccc1)N1CCCCN2[C@@H](CO)[C@H](c3ccc(C#CC4CCCC4)cc3)[C@@H]2C1 | > 10 µM (inactive)
10 | COc1cccc(-c2ccc3c(c2)[C@H]2[C@H](CCN2S(=O)(=O)c2ccccc2C)[C@H](CO)N3)c1 | > 10 µM (inactive)
11 | Cc1ccccc1-c1ccc([C@H]2[C@H]3CN(S(=O)(=O)Cc4ccccc4)CCCCN3[C@H]2CO)cc1 | > 10 µM (inactive)
12 | O=C(C[C@H]1CC[C@H]2[C@@H](COC[C@@H](O)CN2Cc2ccc(Cl)cc2)O1)NCc1ccccc1Cl | > 10 µM (inactive)
13 | COCC(=O)N1[C@H](CO)[C@H](c2ccccc2-c2ccccc2F)[C@@H]1C#N | > 10 µM (inactive)
14 | N#C[C@H]1[C@H](c2ccccc2C2=CCCCC2)[C@@H](CO)N1C(=O)C1CCOCC1 | > 10 µM (inactive)
15 | CCNC(=O)C[C@H]1CC[C@H]2[C@@H](COC[C@@H](O)CN2C(=O)C2CC2)O1 | > 10 µM (inactive)
16 | N#C[C@H]1[C@@H](c2ccccc2-c2ccccc2F)[C@@H](CO)N1C(=O)Cc1ccccc1 | > 10 µM (inactive)
17 | COc1cccc(C#Cc2ccc([C@@H]3[C@@H](CO)N4C(=O)CN(C(=O)Cc5cccnc5)C[C@H]34)cc2)c1 | > 10 µM (inactive)
18 | O=C(NC1CCCCC1)[C@@H]1N[C@@H]2c3ccc(-c4cccc(F)c4)c(=O)n3C[C@@H]2[C@H]1CO | > 10 µM (inactive)
19 | Cc1ccc(NC(=O)Nc2ccc3c(c2)C(=O)N(C)[C@@H]2CC[C@@H](CC(=O)NCC(F)(F)F)O[C@@H]2CO3)cc1 | > 10 µM (inactive)
20 | O=C(NC1CCCCC1)N1CC(=O)N2[C@H](C1)[C@H](c1ccc(-c3ccncc3)cc1)[C@@H]2CO | > 10 µM (inactive)
21 | O=C(CN1CCOCC1)N1CCCCN2[C@H](CO)[C@@H](c3ccc(Br)cc3)[C@@H]2C1 | > 10 µM (inactive)
22 | COc1cccc(S(=O)(=O)N2CCCCN3[C@H](CO)[C@H](c4ccc(C#CCC(C)C)cc4)[C@@H]3C2)c1 | > 10 µM (inactive)
23 | O=C([C@H]1[C@H](CO)[C@H]2Cn3c(cccc3=O)[C@@H]1N2Cc1cocn1)N1CCCCC1 | > 10 µM (inactive)
24 | O=C1CNC[C@@H]2[C@@H](c3ccc(C#CC4CCCCC4)cc3)[C@H](CO)N12 | > 10 µM (inactive)
25 | O=C(C[C@@H]1CC[C@@H]2[C@H](COC[C@@H](O)CN2C(=O)C2CC2)O1)NCc1ccncc1 | > 10 µM (inactive)
26 | O=C(C[C@@H]1CC[C@@H]2[C@H](COC[C@@H](O)CN2C(=O)c2cccnc2)O1)NCc1ccccc1 | > 10 µM (inactive)

Row | Compound | active concentration
27 | OC[C@@H]1[C@H]2c3ccccc3NC[C@H]2N1CC1CCOCC1 | > 10 µM (inactive)
28 | OC[C@@H]1[C@H](c2ccccc2)C2(CN(Cc3nccs3)C2)N1CCC(F)(F)F | > 10 µM (inactive)
29 | COc1ccc2c3c([nH]c2c1)[C@@H](CO)N(C(=O)c1cccnc1)CC31CCN(C(=O)CN(C)C)CC1 | > 10 µM (inactive)
30 | C[C@@H](NC(=O)[C@@H]1[C@@H](CO)[C@@H]2Cn3c(ccc(-c4ccncc4)c3=O)[C@@H]2N1C)c1ccccc1 | > 10 µM (inactive)
31 | COC(=O)C[C@@H]1CC[C@@H]2[C@@H](COc3ccc(NS(=O)(=O)c4ccccc4Cl)cc3C(=O)N2C)O1 | > 10 µM (inactive)
32 | CN1c2ccc(Br)cc2[C@H]2[C@H](CCN2C(=O)Cc2ccccc2)[C@H]1CO | > 10 µM (inactive)
33 | C/C=C/c1ccc([C@@H]2[C@@H](CO)N(C(=O)C3CCOCC3)C23CN(C(=O)NC(C)C)C3)cc1 | > 10 µM (inactive)
34 | CC(=O)N1CCCCN2[C@H](CO)[C@H](c3ccc(-c4ccccc4)cc3)[C@H]2C1 | > 10 µM (inactive)
35 | O=C(c1cnccn1)N1CC[C@@H]2[C@H]1c1cc(-c3ccccc3F)ccc1N[C@@H]2CO | > 10 µM (inactive)
36 | CC(C)NC(=O)Nc1ccc2c(c1)C(=O)N(C)[C@H]1CC[C@@H](CC(=O)NCc3ccc(F)cc3)O[C@H]1CO2 | > 10 µM (inactive)
37 | O=C1CN(S(=O)(=O)Cc2ccccc2)C[C@H]2[C@@H](c3ccc(C#Cc4ccccc4)cc3)[C@H](CO)N12 | > 10 µM (inactive)
38 | COCC(=O)N1[C@H](CO)[C@H]2c3ccccc3NC[C@H]21 | > 10 µM (inactive)
39 | O=C(C[C@H]1CC[C@@H]2[C@H](COC[C@H](O)CN2C(=O)Nc2ccc(Cl)c(Cl)c2)O1)NCc1ccc(Cl)cc1 | > 10 µM (inactive)
40 | O=C(C[C@@H]1CC[C@@H]2[C@H](COC[C@H](O)CN2Cc2ccc3c(c2)OCO3)O1)Nc1ccccc1 | > 10 µM (inactive)
41 | CCCC#Cc1ccc([C@@H]2[C@@H](CO)N3C(=O)CN(S(=O)(=O)c4ccccc4C)C[C@H]23)cc1 | > 10 µM (inactive)
42 | O=C(Cc1ccccc1)N1CC[C@@H]2[C@H](CO)Nc3ccc(C4=CCCCC4)cc3[C@@H]21 | > 10 µM (inactive)
43 | CN1C(=O)c2cc(NC(=O)Cc3cccs3)ccc2OC[C@H]2O[C@H](CC(=O)N[C@H]3CCN(Cc4ccccc4)C3)CC[C@H]21 | > 10 µM (inactive)
44 | CCCC#Cc1ccc([C@@H]2[C@H](CO)N3C(=O)CN(S(=O)(=O)c4ccccc4C)C[C@@H]23)cc1 | > 10 µM (inactive)
45 | CCS(=O)(=O)Nc1ccc2c(c1)C(=O)N(C)[C@H]1CC[C@H](CC(=O)N[C@@H]3CCN(Cc4ccccc4)C3)O[C@H]1CO2 | > 10 µM (inactive)
46 | O=S(=O)(Cc1ccccc1)N1[C@H](CO)[C@@H](c2ccccc2)C12CN(CCC(F)(F)F)C2 | > 10 µM (inactive)
47 | O=C(C[C@H]1CC[C@@H]2[C@H](COC[C@@H](O)CN2S(=O)(=O)c2ccccc2)O1)Nc1ccccc1 | > 10 µM (inactive)
48 | CC(=O)N1CC[C@H]2[C@@H]1c1cc(-c3ccc(C#N)cc3)ccc1N(C)[C@H]2CO | > 10 µM (inactive)
49 | CCS(=O)(=O)Nc1ccc2c(c1)C(=O)N(C)[C@@H]1CC[C@H](CC(=O)N[C@H]3CCN(Cc4ccccc4)C3)O[C@H]1CO2 | > 10 µM (inactive)
50 | COc1ccc2c3c([nH]c2c1)[C@@H](CO)N(C(=O)CN(C)C)CC31CCN(Cc2cncnc2)CC1 | > 10 µM (inactive)
51 | CC=Cc1ccc2n(c1=O)C[C@@H]1[C@@H](CO)[C@H](C(=O)NCC)N(C(=O)CC3CC3)[C@H]21 (mixture of isomers) | > 10 µM (inactive)
